Test results taken from patent publication US10098350B2, “Fungicidal amides” (E. I. DU PONT DE NEMOURS AND COMPANY, priority 2013, dated 2018).

Legend:
Assay type in all cases: in vivo
[1] = system: Erysiphe graminis f. sp. tritici; experiment: Test E: wheat seedlings sprayed with test suspension, inoculated with Erysiphe graminis f. sp. tritici (wheat powdery mildew), visual disease rating
Excerpt: (§1) General protocol for preparing test suspensions for Tests A-E: the test compounds were first dissolved in acetone in an amount equal to 3% of the final volume and then suspended at the desired concentration (in ppm) in acetone and purified water (50/50 mix by volume) containing 250 ppm of the surfactant Trem® 014 (polyhydric alcohol esters). The resulting test suspensions were then used in Tests A-E. Samples were applied to plants at either a 10 ppm (**), 40 ppm, 50 ppm (*) or 200 ppm (#) test solution to the point of run-off on the test plants with the equivalent of a rate of 40 g ai/ha, 160 g ai/ha, 200 g ai/ha, or 800 g ai/ha, respectively.
The test suspension was sprayed to the point of run-off on wheat seedlings. The following day the seedlings were inoculated with a spore dust of Erysiphe graminis f. sp. tritici, (the causal agent of wheat powdery mildew) and incubated in a growth chamber at 20° C. for 7 or 8 days, after which time visual disease ratings were made.
(§2) Results for Tests A-E are given in Table A. In the Table, a rating of 100 indicates 100% disease control and a rating of 0 indicates no disease control (relative to the controls). A dash (-) indicates no test results.

[2] = system: Stagonospora nodorum (also known as Septoria nodorum); experiment: Test B: wheat seedlings sprayed with test suspension, inoculated with Stagonospora nodorum (wheat glume blotch), visual disease rating
Excerpt: as §1
The test suspension was sprayed to the point of run-off on wheat seedlings. The following day the seedlings were inoculated with a spore suspension of Stagonospora nodorum (also known as Septoria nodorum; the causal agent of wheat glume blotch) and incubated in a saturated atmosphere at 20° C. for 48 h, and then moved to a growth chamber at 20° C. for 6 days, after which time visual disease ratings were made.
as §2

Septoria tritici = experiment: Test C: wheat seedlings sprayed with test suspension, inoculated with Septoria tritici (wheat leaf blotch), visual disease rating
Excerpt: as §1
(§3) The test suspension was sprayed to the point of run-off on wheat seedlings. The following day the seedlings were inoculated with a spore suspension of Septoria tritici (the causal agent of wheat leaf blotch) and incubated in a saturated atmosphere at 24° C. for 48 h, and then moved to a growth chamber at 20° C. for 21 days, after which time visual disease ratings were made.
as §2

[3] = system: Puccinia recondite f. sp. tritici; experiment: Test D: wheat seedlings sprayed with test suspension, inoculated with Puccinia recondite f. sp. tritici (wheat leaf rust), visual disease rating
Excerpt: as §1
as §3, with “Puccinia recondite f. sp. tritici;” for “Septoria tritici”, “rust)” for “blotch)”, “20°” for “24°”, “24” for “48”, “6” for “21”
as §2

[4] = Cmpd. No. marked '**' (other test rate; meaning of mark not shown)
[5] = Cmpd. No. unmarked, 100 = 100% disease control, 0 = no control relative to controls
[6] = Cmpd. No. marked '*' (other test rate; meaning of mark not shown)

CC(c1ncc(-n2cc(Cl)cn2)cc1Cl)N(C(=O)c1c(C(F)F)nn(C)c1F)C1CC1 (racemic) [compound 97]
Test E rating (% disease control) [1, 4]: 94%
Test B rating (% disease control) [2, 4]: 100%
Test C rating (% disease control) (Septoria tritici; [4]): 97%
Test D rating (% disease control) [3, 4]: 94%

Cn1nc(C(F)F)c(C(=O)N(Cc2ccc(-n3ccc(C(F)(F)F)n3)cc2Cl)C2CCC2)c1F [Compound 162]
Test E rating (% disease control) [1, 4]: 0%
Test B rating (% disease control) [2, 4]: 0%
Test C rating (% disease control) (Septoria tritici; [4]): 64%
Test D rating (% disease control) [3, 4]: 0%

Cn1nc(C(F)F)c(C(=O)N(Cc2ccc(-n3ccc(C(F)(F)F)n3)cc2Cl)C2COC2)c1F [Compound 164]
Test E rating (% disease control) [1, 4]: 0%
Test B rating (% disease control) [2, 4]: 0%
Test C rating (% disease control) (Septoria tritici; [4]): 46%
Test D rating (% disease control) [3, 4]: 0%

Cn1cc(C(=O)N(Cc2c(Cl)cc(-n3ccc(Br)n3)cc2Cl)C2CC2)c(C(F)F)n1 [compound 40]
Test E rating (% disease control) [1, 5]: 89%
Test B rating (% disease control) [2, 5]: 99%
Test C rating (% disease control) (Septoria tritici; [5]): 99%
Test D rating (% disease control) [3, 5]: 99%

CC(c1cc(-n2ccc(C(F)(F)F)n2)cc(C(F)(F)F)c1)N(C(=O)c1cn(C)nc1C(F)F)C1CC1 (stereo not drawn) [compound 42]
Test E rating (% disease control) [1, 5]: 0%
Test B rating (% disease control) [2, 5]: 0%
Test C rating (% disease control) (Septoria tritici; [5]): 39%
Test D rating (% disease control) [3, 5]: 0%

Cn1nc(C(F)F)c(C(=O)N(Cc2cnc(-n3ccc(C(F)(F)F)n3)c(Cl)c2)C2CC2)c1F [compound 43]
Test E rating (% disease control) [1, 5]: 0%
Test B rating (% disease control) [2, 5]: 0%
Test C rating (% disease control) (Septoria tritici; [5]): 6%
Test D rating (% disease control) [3, 5]: 0%

COc1ccc(C(C)N(C(=O)c2cn(C)nc2C(F)F)C2CC2)cc1-n1ccc(C(F)(F)F)n1 (stereo not drawn) [compound 44]
Test E rating (% disease control) [1, 5]: 0%
Test B rating (% disease control) [2, 5]: 78%
Test C rating (% disease control) (Septoria tritici; [5]): 87%
Test D rating (% disease control) [3, 5]: 0%

Cc1ccc(-n2ccc(C(F)(F)F)n2)cc1C(C)N(C(=O)c1cn(C)nc1C(F)F)C1CC1 (stereo not drawn) [compound 45]
Test E rating (% disease control) [1, 5]: 90%
Test B rating (% disease control) [2, 5]: 100%
Test C rating (% disease control) (Septoria tritici; [5]): 96%
Test D rating (% disease control) [3, 5]: 9%

Cn1nc(C(F)F)c(C(=O)N(Cc2ccc(-n3cccn3)cc2Cl)C2CC2)c1F [compound 46]
Test E rating (% disease control) [1, 5]: 98%
Test B rating (% disease control) [2, 5]: 100%
Test C rating (% disease control) (Septoria tritici; [5]): 99%
Test D rating (% disease control) [3, 5]: 94%

Cn1nc(C(F)F)c(C(=O)N(Cc2ccc(-n3ccc(Br)n3)cc2Cl)C2CC2)c1F [compound 47]
Test E rating (% disease control) [1, 5]: 99%
Test B rating (% disease control) [2, 5]: 100%
Test C rating (% disease control) (Septoria tritici; [5]): 99%
Test D rating (% disease control) [3, 5]: 98%

Cn1cc(C(=O)N(Cc2ccc(-n3cccn3)cc2Cl)C2CC2)c(C(F)F)n1 [compound 48]
Test E rating (% disease control) [1, 5]: 73%
Test B rating (% disease control) [2, 5]: 100%
Test C rating (% disease control) (Septoria tritici; [5]): 98%
Test D rating (% disease control) [3, 5]: 0%

Cn1cc(C(=O)N(Cc2ccc(-n3ccc(Br)n3)cc2Cl)C2CC2)c(C(F)F)n1 [compound 49]
Test E rating (% disease control) [1, 5]: 69%
Test B rating (% disease control) [2, 5]: 98%
Test C rating (% disease control) (Septoria tritici; [5]): 99%
Test D rating (% disease control) [3, 5]: 9%

Cn1cc(C(=O)N(Cc2ccc(-n3cncn3)cc2Cl)C2CC2)c(C(F)F)n1 [compound 50]
Test E rating (% disease control) [1, 5]: 0%
Test B rating (% disease control) [2, 5]: 0%
Test C rating (% disease control) (Septoria tritici; [5]): 28%
Test D rating (% disease control) [3, 5]: 0%

CC(c1ccc(C(F)(F)F)c(-n2ccc(C(F)(F)F)n2)c1)N(C(=O)c1c(C(F)F)nn(C)c1F)C1CC1 (stereo not drawn) [compound 51]
Test E rating (% disease control) [1, 5]: 84%
Test B rating (% disease control) [2, 5]: 100%
Test C rating (% disease control) (Septoria tritici; [5]): 88%
Test D rating (% disease control) [3, 5]: 0%

Cc1ccc(-n2ccc(C(F)(F)F)n2)cc1C(C)N(C(=O)c1c(C(F)F)nn(C)c1F)C1CC1 (stereo not drawn) [compound 52]
Test E rating (% disease control) [1, 5]: 99%
Test B rating (% disease control) [2, 5]: 100%
Test C rating (% disease control) (Septoria tritici; [5]): 99%
Test D rating (% disease control) [3, 5]: 93%

CC(c1cc(-n2ccc(C(F)(F)F)n2)ccc1Br)N(C(=O)c1c(C(F)F)nn(C)c1F)C1CC1 (stereo not drawn) [compound 53]
Test E rating (% disease control) [1, 5]: 96%
Test B rating (% disease control) [2, 5]: 100%
Test C rating (% disease control) (Septoria tritici; [5]): 97%
Test D rating (% disease control) [3, 5]: 74%

COc1ccc(C(C)N(C(=O)c2c(C(F)F)nn(C)c2F)C2CC2)cc1-n1ccc(C(F)(F)F)n1 (stereo not drawn) [compound 55]
Test E rating (% disease control) [1, 5]: 87%
Test B rating (% disease control) [2, 5]: 100%
Test C rating (% disease control) (Septoria tritici; [5]): 97%
Test D rating (% disease control) [3, 5]: 61%

CC(c1cc(-n2ccc(C(F)(F)F)n2)cc(C(F)(F)F)c1)N(C(=O)c1c(C(F)F)nn(C)c1F)C1CC1 (stereo not drawn) [compound 56]
Test E rating (% disease control) [1, 5]: 92%
Test B rating (% disease control) [2, 5]: 100%
Test C rating (% disease control) (Septoria tritici; [5]): 97%
Test D rating (% disease control) [3, 5]: 86%

CC(C)c1ccc(-n2ccc(C(F)(F)F)n2)cc1CN(C(=O)c1c(C(F)F)nn(C)c1F)C1CC1 [compound 88]
Test E rating (% disease control) [1, 6]: 98%
Test C rating (% disease control) (Septoria tritici; [6]): 94%
Test D rating (% disease control) [3, 6]: 99%

Cn1nc(C(F)F)c(C(=O)N(Cc2ncc(-n3ccc(C(F)(F)F)n3)cc2Br)C2CC2)c1F [compound 91]
Test E rating (% disease control) [1, 4]: 73%
Test C rating (% disease control) (Septoria tritici; [4]): 100%
Test D rating (% disease control) [3, 4]: 98%

Cc1cc(CN(C(=O)c2c(C(F)F)nn(C)c2F)C2CC2)ccc1-n1ccc(C(F)(F)F)n1 [compound 93]
Test E rating (% disease control) [1, 4]: 69%
Test C rating (% disease control) (Septoria tritici; [4]): 100%
Test D rating (% disease control) [3, 4]: 99%

Cn1nc(C(F)F)c(C(=O)N(Cc2ccc(-n3ccc(C(F)(F)F)n3)c(C(F)(F)F)c2)C2CC2)c1F [compound 95]
Test E rating (% disease control) [1, 4]: 27%
Test C rating (% disease control) (Septoria tritici; [4]): 87%
Test D rating (% disease control) [3, 4]: 67%

COc1cc(CN(C(=O)c2c(C(F)F)nn(C)c2F)C2CC2)ccc1-n1ccc(C(F)(F)F)n1 [compound 96]
Test E rating (% disease control) [1, 4]: 73%
Test C rating (% disease control) (Septoria tritici; [4]): 100%
Test D rating (% disease control) [3, 4]: 99%

C=C(C)c1cc(CN(C(=O)c2c(C(F)F)nn(C)c2F)C2CC2)ccc1-n1ccc(C(F)(F)F)n1 [compound 102]
Test E rating (% disease control) [1, 4]: 13%
Test C rating (% disease control) (Septoria tritici; [4]): 100%
Test D rating (% disease control) [3, 4]: 98%

CC(c1ncc(-n2ccc(C(F)(F)F)n2)cc1Cl)N(C(=O)c1c(C(F)F)nn(C)c1F)C1CC1 (stereo not drawn) [compound 103]
Test E rating (% disease control) [1, 4]: 94%
Test C rating (% disease control) (Septoria tritici; [4]): 98%
Test D rating (% disease control) [3, 4]: 98%

Cn1cc(-c2cnc(CN(C(=O)c3c(C(F)F)nn(C)c3F)C3CC3)c(Br)c2)cn1 [compound 110]
Test E rating (% disease control) [1, 6]: 40%
Test C rating (% disease control) (Septoria tritici; [6]): 90%
Test D rating (% disease control) [3, 6]: 94%

Cn1cc(C(=O)N(Cc2cc(Cl)cc(-n3ccc(C(F)(F)F)n3)c2)C2CC2)c(C(F)F)n1 [compound 112]
Test E rating (% disease control) [1, 6]: 40%
Test C rating (% disease control) (Septoria tritici; [6]): 94%
Test D rating (% disease control) [3, 6]: 54%

COc1ccc(-n2ccc(C(F)(F)F)n2)cc1CN(C(=O)c1c(C(F)F)nn(C)c1F)C1CC1 [compound 113]
Test E rating (% disease control) [1, 6]: 97%
Test C rating (% disease control) (Septoria tritici; [6]): 100%
Test D rating (% disease control) [3, 6]: 99%

Cn1nc(C(F)F)c(C(=O)N(Cc2ncc(-n3ccc(C(F)(F)F)n3)cc2C2CC2)C2CC2)c1F [compound 114]
Test E rating (% disease control) [1, 4]: 92%
Test C rating (% disease control) (Septoria tritici; [4]): 100%
Test D rating (% disease control) [3, 4]: 100%

COc1ccc(-n2ccc(C(F)(F)F)n2)cc1C(C)N(C(=O)c1cn(C)nc1C(F)F)C1CC1 (stereo not drawn) [compound 120]
Test E rating (% disease control) [1, 5]: 95%
Test B rating (% disease control) [2, 5]: 100%
Test C rating (% disease control) (Septoria tritici; [5]): 92%

Cn1nc(C(F)F)c(C(=O)N(Cc2ncc(-n3ccc(C(F)(F)F)n3)cc2Cl)C2CC2)c1F [compound 122]
Test E rating (% disease control) [1, 4]: 87%
Test C rating (% disease control) (Septoria tritici; [4]): 96%
Test D rating (% disease control) [3, 4]: 99%

Cn1nc(C(F)F)c(C(=O)N(Cc2cccc(-n3ccc(C(F)(F)F)n3)c2Cl)C2CC2)c1F [compound 136]
Test E rating (% disease control) [1, 6]: 87%
Test C rating (% disease control) (Septoria tritici; [6]): 100%
Test D rating (% disease control) [3, 6]: 99%

Cn1nc(C(F)F)c(C(=O)N(Cc2cccc(-n3ccc(C(F)(F)F)n3)c2C(F)(F)F)C2CC2)c1F [compound 137]
Test E rating (% disease control) [1, 6]: 87%
Test C rating (% disease control) (Septoria tritici; [6]): 94%
Test D rating (% disease control) [3, 6]: 98%
